These results are taken from US6660692B1, “Herbicidal compositions comprising picolinafen” (Aventis CropScience S.A., priority 1999, dated 2003).

Common to all, as to assay type: in vivo
Holding throughout (details): 12 days after treatment

Assay [1] deals with Alopecurus myosuroides (ALOMY). Nature of the assay: Example 3 glasshouse trial post-emergence in wheat, (I) and isoproturon. How it is done:
(§1) A glasshouse trial was carried out post-emergence in wheat using a tank mixture comprising a phenoxypicolinamide derivative of formula I (at 1, 4 and 16 g/ha) and isoproturon (at 125, 250 and 500 g/ha) which was sprayed on the following weed species:
(§2) Alopecurus myosuroides (ALOMY), Setaria viridis (SETVI), Avena fatua (AVEFA), Echinochloa crus-galli (ECHCG) and Galium aparine (GALAP).

The subject of assay [2] is Avena fatua (AVEFA). Described as above. As to the method: as §1, §2
Assay [3] deals with Echinochloa crus-galli (ECHCG). The description is as above. As to the method: as §1, §2
In assay [4] the test system is Galium aparine (GALAP). The description is as above. How it is done:
as §1, §2

For assay [5], the system named is Setaria viridis (SETVI). The assay is described as above. How it is done: as §1, §2
The test system of assay [6] is Avena fatua (AVEFA). Kind of assay: Example 4 glasshouse trial post-emergence in wheat, (I) and bromoxynil. As to the method: (§3) A glasshouse trial was carried out post-emergence in wheat using a tank mixture comprising a phenoxypicolinamide derivative of formula I (at 1, 4 and 16 g/ha) and bromoxynil (at 12.5, 50 and 200 g/ha) which was sprayed on the following weed species:
(§4) Setaria viridis (SETVI), Avena fatua (AVEFA), Echinochloa crus-galli (ECHCG) and Galium aparine (GALAP).

The test system of assay [7] is Echinochloa crus-galli (ECHCG). The assay is described as above. As to the method:
as §3, §4

Assay [8] relates to Galium aparine (GALAP). The description is as above. How it is done:
as §3, §4

The subject of assay [9] is Setaria viridis (SETVI). Described as above. As to the method: as §3, §4
The subject of assay [10] is Alopecurus myosuroides (ALOMY). Kind of assay: Example 5 glasshouse trial post-emergence in wheat, (I) and isoxaflutole. As to the method:
(§5) A glasshouse trial was carried out post-emergence in wheat using a tank mixture comprising a phenoxypicolinamide derivative of formula I (at 1, 4 and 16 g/ha) and isoxaflutole (at 8, 16 and 32 g/ha) which was sprayed on the following weed species:
(§6) Alopecurus myosuroides (ALOMY) and Galium aparine (GALAP).

Assay [11] has as its system Galium aparine (GALAP). The description is as above. How it is done:
as §5, §6

Regarding `O=C(Nc1ccc(F)cc1)c1cccc(Oc2cccc(C(F)(F)F)c2)n1` [(I), picolinafen], the “% Weed Control ALOMY” value in assay [1] (1 g ai/ha) is given as 10%; in assay [1] (4 g ai/ha) it was 10%; in assay [1] (16 g ai/ha), 30%; in assay [10] (1 g ai/ha), 10%; in assay [10] (4 g ai/ha), 10%; in assay [10] (16 g ai/ha) it was 30%. In addition, the “% Weed Control AVEFA” value in assay [2] (1 g ai/ha) was 10%; in assay [2] (4 g ai/ha) it was 20%; in assay [2] (16 g ai/ha), 40%; in assay [6] (1 g ai/ha) it was 10%; in assay [6] (4 g ai/ha), 20%; in assay [6] (16 g ai/ha), 40%. In addition, the “% Weed Control ECHCG” value stood at 10% in assay [3] (1 g ai/ha); 10% in [3] (4 g ai/ha); 40% in assay [3] (16 g ai/ha); 10% in [7] (1 g ai/ha); 10% in assay [7] (4 g ai/ha); 40% in assay [7] (16 g ai/ha). Also, the “% Weed Control GALAP” value in [4] (1 g ai/ha) stood at 10%; in assay [4] (4 g ai/ha) it was 40%; in assay [4] (16 g ai/ha), 90%; in [8] (1 g ai/ha) it was 10%; in [8] (4 g ai/ha), 40%; in assay [8] (16 g ai/ha), 90%. Also, the results for the “% Weed Control GALAP” value in assay [11] (1 g ai/ha), in [11] (4 g ai/ha) and in assay [11] (16 g ai/ha) were 10%, 40% and 90%, respectively. The “% Weed Control SETVI” value in assay [5] (1 g ai/ha) amounted to 10%; in assay [5] (4 g ai/ha), 30%; in assay [5] (16 g ai/ha), 70%; in [9] (1 g ai/ha), 10%; in [9] (4 g ai/ha), 30%; in assay [9] (16 g ai/ha) it was 70%.

For the compound `CC(C)c1ccc(NC(=O)N(C)C)cc1` [Compound (II), 3-(4-isopropylphenyl)-1,1-dimethylurea], the “% Weed Control ALOMY” value stood at 0% in assay [1] (125 g ai/ha), 0% in [1] (250 g ai/ha) and 20% in [1] (500 g ai/ha). Also, the “% Weed Control AVEFA” value in [2] (125 g ai/ha) is recorded as 0%; in assay [2] (250 g ai/ha), 30%; in assay [2] (500 g ai/ha) it was 30%. Moreover, the “% Weed Control ECHCG” value in assay [3] (125 g ai/ha) is reported as 10%; in [3] (250 g ai/ha), 70%; in assay [3] (500 g ai/ha) it was 70%. For the same compound, the “% Weed Control GALAP” value in assay [4] (125 g ai/ha), in [4] (250 g ai/ha) and in assay [4] (500 g ai/ha) was 0% each time. The “% Weed Control SETVI” value in [5] (125 g ai/ha) stood at 50%; in assay [5] (250 g ai/ha), 70%; in assay [5] (500 g ai/ha), 100%.

Take `N#Cc1cc(Br)c(O)c(Br)c1` [Compound (III), 3,5-dibromo-4-hydroxybenzonitrile]: the entries for the “% Weed Control AVEFA” value in assay [6] (12.5 g ai/ha), in [6] (50 g ai/ha) and in [6] (200 g ai/ha) were 0%, 0% and 10%, respectively. The “% Weed Control ECHCG” value in assay [7] (12.5 g ai/ha) is listed as 0%; in assay [7] (50 g ai/ha) it was 0%; in [7] (200 g ai/ha), 20%. Further, the “% Weed Control GALAP” value is reported as 0% in [8] (12.5 g ai/ha), 80% in assay [8] (50 g ai/ha) and 100% in assay [8] (200 g ai/ha). In addition, the “% Weed Control SETVI” value in [9] (12.5 g ai/ha) worked out at 0%; in assay [9] (50 g ai/ha), 20%; in [9] (200 g ai/ha) it was 20%.

For `CS(=O)(=O)c1cc(C(F)(F)F)ccc1C(=O)c1cnoc1C1CC1` [Compound (IV), 5-cyclopropyl-4-(2-methylsulphonyl-4-trifluoromethyl)-benzoylisoxazole], the “% Weed Control ALOMY” value in assay [10] (8 g ai/ha) is 10%; in assay [10] (16 g ai/ha), 20%; in assay [10] (32 g ai/ha), 40%. The “% Weed Control GALAP” value in [11] (8 g ai/ha) came to 60%; in assay [11] (16 g ai/ha), 60%; in [11] (32 g ai/ha) it was 80%.
